Measured values from paper PMC11738990, “A small-molecule TNIK inhibitor targets fibrosis in preclinical and clinical models” (Nature Biotechnology, 2024).
Values joined by “and” are separate entries in the source; they are usually repeats but may differ in a detail not shown here. Equal entries are not always repeated.

Tests used:
healthy subjects = settings: in vivo
NHDF cells = experiment: α-SMA evaluation in NHDF; format: cell-based, human; settings: TGF-β 0.1 ng/ml, 72 h; read-out: IC50, α-SMA expression
Method: The medium was then replaced with an assay medium containing or lacking (control conditions) the test compound, and TGF-β (0.1 ng ml^−1) was added or not (unstimulated control). […] All experimental conditions were performed in five replicates. For in situ immunolabeling and image analysis, at the end of the incubation, fibroblasts were rinsed, fixed and permeabilized. […] Image acquisition was performed using a high-resolution imaging system, the IN Cell Analyzer 2200 (GE Healthcare) automated microscope (objective lens, ×20). Five pictures per well were taken. Labeling was quantified by measuring the fluorescence intensity of α-SMA signals normalized to the total number of nuclei identified (integration of numerical data was performed with the Developer Toolbox 1.5, GE Healthcare software).

mice = settings: male mice, 180 mg/kg daily; ref Insilico Medicine, 2021; cited from earlier work
C57BL/6 mice = experiment: Bleomycin-induced lung fibrosis model; format: in vivo, mouse; settings: for HE staining (inflammation area) / IL-1beta in BALF / IL-6 in BALF / monocytes, cell count in BALF / neutrophils, cell count in BALF / Lung function (Penh) / Masson Trichrome's staining / Modified Ashcroft Score / collagen I / α-SMA: individual animals; for Lung function (Penh) / Masson Trichrome's staining / Modified Ashcroft Score / collagen I / α-SMA: Fig 3B-C
Method: Mice received bleomycin on day 1 at a dose of 0.66 mg per kg (equivalent to 1 U per kg), in a volume of 50 μl by intratracheal administration, or received saline (sham group). On day 7, dosing with the corresponding compounds was started. The vehicle group (group 1) was treated with 0.5% methylcellulose BID. […] On days 5 and 21, lung function measurement was performed. On day 28, all animals were killed, and blood and tissue samples were collected along with BALF.
Lung function was measured according to the HDB standard protocol. Expiratory time, relaxation time, peak expiratory flow and peak inspiratory flow were collected and used to calculate Penh data.
Mice were first anesthetized with Zoletil–xylazine (50 mpk and 10 mpk, i.p.). Next, a 1.5–2-cm longitudinal incision was made on the ventral side of the neck to expose the trachea by blunt dissection, and curved forceps were placed underneath the trachea. A 10–12-cm piece of suture was then threaded underneath the trachea using forceps. The ends of the suture were then pulled cranially to ‘stretch’ the trachea toward the surgeon. A 20-G needle was then used to poke a hole in the trachea as close to the larynx as possible. A 22-G blunt stainless steel needle connected to PE tubing was placed in the hole and inserted approximately 5–8 mm into the trachea. The cannula was secured in the trachea by tying the suture around it with an overhand knot. A 1-ml syringe containing 0.4 ml saline was gently pushed forward and backward three times to recover BALF fluid. BALF was transferred into empty tubes and stored on ice. This process was repeated twice with 0.3 ml saline for a total volume of 1 ml.
Total cell numbers were counted with a standard hemocytometer by mixing 20 μl BALF with 20 μl trypan blue. Cytospins were prepared by cytocentrifugation using Cytospins at 106g for 5 min, and then smears of BALF cells were stained with Diff-Quick stain. Cell differentiation was performed by counting at least 400 cells using standard hemocytologic criteria to classify them as alveolar macrophages or monocytes, neutrophils, eosinophils or lymphocytes. The rest of the BALF fluid was centrifuged, and supernatants were collected and stored at −80 °C for cytokine, chemokine and total protein analysis.
From the collected BALF, concentrations of cytokines were measured from mice in groups 2–7 killed on day 28. Mouse BALF cytokines and chemokines were measured using the ELISA Analysis Kit (Sinobest Bio). Mouse BALF soluble collagen was measured using the Soluble Collagen kit (Biocolor). Mouse lung hydroxyproline content was measured using the Hydroxyproline Assay Kit (Njjcbio).
Left lung lobes were removed from each mouse and fixed in 10% NBF solution, embedded in paraffin and processed to obtain 4-μm sections for staining with H&E. H&E-stained slides were scanned using an Aperio ScanScope Model CS2 (Leica) at ×200 magnification. Images were then opened in the HALO Plus 5 workstation (version 2.3, Indica Labs) program. Using the pen annotation tool, the whole-lung section was selected as an annotation layer. The area of vessels was defined as background using the exclusion drawing tool. The total inflammation area was quantified by selecting the dark blue inflammation cells using the pen annotation tool manually. The percentage of H&E staining (inflammation area/total area of the lung) in the selected annotation was then calculated using the program.
Masson’s trichrome staining was conducted using a ready-to-use kit (Trichrome Stain (Masson) Kit, HT15, Sigma-Aldrich) as described by the manufacturer.
Lung sections were cut at a thickness of 4 μm, dried in an oven for 1 h and stained with M&T using our standard protocol.

[1] = system: primary bronchial epithelial cells from donors with IPF; experiment: EMT by FN1, high-content analysis; format: cell-based, human; settings: three donors with IPF
Method: For the measurement of EMT by FN1, on the first day, human primary bronchial epithelial cells were seeded. After 2 d, the medium of the cells was refreshed. […] After 1 h, all cells were treated with 5 ng ml^−1 TGF-β1.
Segmentation and quantification of α-SMA and FN1 immunoreactivity was carried out with an HCA algorithm, with density × area (D × A) output. Data normalization of raw α-SMA or FN1 (D × A) to percent inhibition values was performed on a plate-to-plate basis.
Percent inhibition = (100 − (μp − Xi)/(μp − Xn)) × 100
μp is the average α-SMA or FN1 value of the positive control (TGF-β1 + 1 μM SB525334). μn is the average α-SMA or FN1 value of the vehicle control (TGF-β1 + 0.1% DMSO). Xi is the compound α-SMA or FN1 value. IC50 values for all compounds (if calculable, based on the point of inflection) were calculated with GraphPad Prism using non-linear fit of log (inhibitor) versus response (four parameter).
DAPI fluorescence was applied for HCA-based quantification of the number of imaged cells on a plate-to-plate basis.
Percent remaining cells = (Xi/μn) × 100%
μn is the average number of nuclei of the vehicle control (TGF-β1 + 0.1% DMSO). Xi is the compound number of nuclei.

[2] = G2 INS018_055 3mpk BID, 3 mg/kg
[3] = G3 INS018_055 10mpk BID, 10 mg/kg
[4] = G4 INS018_055 30mpk BID, 30 mg/kg

Question: What does the source list for `CC(C)n1cnc(-c2ccc(F)cc2)c1-c1nc(C(=O)Nc2ccc(N3CCN(C)CC3)cc2)c[nH]1` [INS018_055, 2-[4-(4-fluorophenyl)-1-(prop-2-yl)imidazol-5-yl]-N-[4-(4-methylhexahydropyrazin-1-yl)phenyl]-1H-imidazole-4-carboxamide]?
Answer: Lymph node palpable (healthy subjects): 1 (5.6) [1]; Medical device site irritation (healthy subjects): 2 (6.7) [2]; Nasal congestion (healthy subjects): 1 (5.6) [1]; Nausea (healthy subjects): 1 (5.6) [1]; Nightmare (healthy subjects): 1 (5.6) [1]; Paraesthesia (healthy subjects): 0 [0]; Phlebitis (healthy subjects): 3 (10.0) [3]; Pruritus (healthy subjects): 1 (5.6) [1]; Psychiatric disorders (healthy subjects): 1 (5.6) [1]; Rhinorrhoea (healthy subjects): 0 [0]; Seasonal allergy (healthy subjects): 1 (5.6) [1]; Skin mass (healthy subjects): 1 (5.6) [1]; Syncope (healthy subjects): 1 (3.3) [1]; Urticaria (healthy subjects): 0 [0]; Vascular disorders (healthy subjects): 3 (10.0) [3]; IC50 (NHDF cells): 25 nM; reduction of erythrocyte count (mice): 19.8%; reduction in fibrotic area vs vehicle (C57BL/6 mice; 3 mg per kg BID): over 50%; reduction in fibrotic area vs vehicle (C57BL/6 mice; 10 mg per kg BID): more than 75%; reduction in fibrotic area vs vehicle (C57BL/6 mice; 30 mg per kg BID): more than 75%; HE staining (inflammation area) (C57BL/6 mice; 3mpk BID): 16.35 and 17.87 and 12.71 and 1.09 and 10.2 and 19.47 and 0.4 and 43.83 and 48.17 and 4.33; IL-1beta in BALF (C57BL/6 mice; 3mpk BID): 154.02 and 147.65 and 144.47 and 164.21 and 155.93 and 168.67 and 177.59; IL-6 in BALF (C57BL/6 mice; 3mpk BID): 126.67 and 118.83 and 123.05 and 144.15 and 121.24 and 147.77 and 123.65 and 122.44 and 139.33; monocytes, cell count in BALF (C57BL/6 mice; 3mpk BID): 48000 and 77000 and 128800 and 211900 and 99500 and 150400 and 143100 and 79600 and 62000; neutrophils, cell count in BALF (C57BL/6 mice; 3mpk BID): 31200 and 500 and 700 and 0 and 1000; HE staining (inflammation area) (C57BL/6 mice; 10mpk BID): 21.7 and 0.11 and 5.58 and 22.87 and 0.24 and 8.94 and 0.45 and 42.15 and 0.46 and 0.26; IL-1beta in BALF (C57BL/6 mice; 10mpk BID): 241.92 and 204.98 and 199.25 and 226 and 212.62 and 229.18 and 207.53 and 202.43 and 189.69 and 227.91; IL-6 in BALF (C57BL/6 mice; 10mpk BID): 201.44 and 191.8 and 156.22 and 187.57 and 178.53 and 200.84 and 157.42 and 203.86 and 172.5; monocytes, cell count in BALF (C57BL/6 mice; 10mpk BID): 40000 and 80000 and 116200 and 4200 and 172000 and 84000 and 29600 and 114100 and 79200 and 38100; neutrophils, cell count in BALF (C57BL/6 mice; 10mpk BID): 500 and 0 and 200 and 700; HE staining (inflammation area) (C57BL/6 mice; 30mpk BID): 48.7 and 0.62 and 0.2 and 3.2 and 0.42 and 0.24 and 10.41 and 0.95 and 7.2 and 3.59; IL-1beta in BALF (C57BL/6 mice; 30mpk BID): 205.62 and 188.42 and 203.7 and 211.35 and 200.52 and 228.54 and 189.06 and 180.78 and 190.33 and 224.09; IL-6 in BALF (C57BL/6 mice; 30mpk BID): 147.17 and 151.39 and 139.93 and 159.83 and 139.33 and 174.91 and 170.69 and 171.9 and 168.28; monocytes, cell count in BALF (C57BL/6 mice; 30mpk BID): 53400 and 20000 and 196300 and 26700 and 124800 and 27500 and 26500 and 61600 and 54600; neutrophils, cell count in BALF (C57BL/6 mice; 30mpk BID): 0 and 400 and 1300 and 900; Lung function (Penh) (C57BL/6 mice; [2]): 0.6758 and 0.6536 and 0.6784 and 0.8035 and 0.7941 and 0.8536 and 2.1862 and 0.7195 and 0.614 and 0.4863 and 3.086 and 0.8355 and 0.9151; Masson Trichrome's staining (C57BL/6 mice; [2]): 13.42 and 12.85 and 13.06 and 0.67 and 7.67 and 20.55 and 0.21 and 52.81 and 60.17 and 6.1; Modified Ashcroft Score (C57BL/6 mice; [2]): 4.5 and 1.5 and 6 and 3.25; collagen I (C57BL/6 mice; [2]): 1.64 and 0.35 and 0.02 and 1.98 and 3.34 and 1.23 and 0.25 and 0.51 and 0.22 and 0.32; α-SMA (C57BL/6 mice; [2]): 0.37 and 0.33 and 0.09 and 0.57 and 0.58 and 0.29; Lung function (Penh) (C57BL/6 mice; [3]): 0.921 and 0.5921 and 0.7137 and 3.621 and 0.8031 and 0.5775 and 0.6428 and 0.5842 and 0.678 and 0.5758 and 0.618 and 0.6177 and 0.711; Masson Trichrome's staining (C57BL/6 mice; [3]): 19.44 and 0.05 and 6.38 and 17.98 and 0.22 and 11.46 and 0.26 and 36.84 and 1 and 0.45; Modified Ashcroft Score (C57BL/6 mice; [3]): 1.25 and 2.5 and 0.75 and 3 and 4.5 and 0.25; collagen I (C57BL/6 mice; [3]): 0.04 and 2.29 and 0.08 and 0.17 and 0.07 and 0.11 and 0.36 and 0.22 and 2.99 and 3.49; α-SMA (C57BL/6 mice; [3]): 0.2 and 0.91 and 0.22 and 0.38 and 0.09 and 0.78 and 0.06 and 0.41 and 2.61; Lung function (Penh) (C57BL/6 mice; [4]): 0.81 and 0.4773 and 0.7792 and 0.5085 and 0.4976 and 0.9972 and 0.6276 and 0.4738 and 0.7711 and 0.8367 and 0.5642 and 0.8492 and 0.6495; Masson Trichrome's staining (C57BL/6 mice; [4]): 54.82 and 0.37 and 1.9 and 3.57 and 0.51 and 0.16 and 12.49 and 1.77 and 9.46 and 7.1; Modified Ashcroft Score (C57BL/6 mice; [4]): 1.5 and 3 and 6; collagen I (C57BL/6 mice; [4]): 0.43 and 0.13 and 2.32 and 1.69 and 1.28 and 0.07 and 1.12 and 0.03 and 0.15 and 0.02; α-SMA (C57BL/6 mice; [4]): 0.1 and 0.05 and 0.38 and 0.09 and 0.73 and 0.22 and 0.72 and 0.11 and 0.15 and 0.18; IC50 [1]: 250 nM and 320 nM and 400 nM
